The nature of data set [1]: logP determination by HPLC on reverse-phase column (C 18), acidic range pH 2.3. The class given is physicochemical. The conditions noted are these: reverse-phase HPLC column (C 18), HPLC, C 18 reverse-phase, 43° C. On the procedure:
The logP values given in Table 1 were determined with EEC Directive 79/831 Annex V.A8 by HPLC (High Performance Liquid Chromatography) on a reverse-phase column (C 18). Temperature: 43° C. Mobile phases for the determination in the acidic range (pH 2.3): 0.1% aqueous phosphoric acid, acetonitrile; linear gradient from 10% acetonitrile to 90% acetonitrile. Calibration was carried out using unbranched alkan-2-ones (having 3 to 16 carbon atoms) with known logP values (determination of the logP values by the retention times using linear interpolation between two successive alkanones).

Data set [2] concerns apple scab pathogen Venturia inaequalis. As to the kind of experiment: Venturia test (apple)/protective. Format: in vivo. Conditions: apple plants, protective; application rate 100 g/ha; evaluation 10 days after inoculation. The procedure:
(§1) To produce a suitable preparation of active compound, 1 part by weight of active compound is mixed with the stated amounts of solvents and emulsifier, and the concentrate is diluted with water to the desired concentration.
To test for protective activity, young plants are sprayed with the preparation of active compound at the stated application rate. After the spray coating has dried on, the plants are inoculated with an aqueous conidia suspension of the apple scab pathogen Venturia inaequalis and then remain in an incubation cabin at about 20° C. and 100% relative atmospheric humidity for 1 day.
The plants are then placed in a greenhouse at about 21° C. and a relative atmospheric humidity of about 90%.
(§2) Evaluation is carried out 10 days after the inoculation. 0% means an efficacy which corresponds to that of the control, whereas an efficacy of 100% means that no infection is observed.

The next data set relates to Botrytis cinerea. As to the kind of experiment: Botrytis test (bean)/protective. Format: in vivo. The conditions noted are these: 48 h, bean plants, protective, application rate 500 g/ha, evaluation 2 days after inoculation, read-out: Efficacy in %. On the procedure:
as §1
To test for protective activity, young plants are sprayed with the preparation of active compound at the stated application rate. After the spray coating has dried on, 2 small pieces of agar colonized by Botrytis cinerea are placed onto each leaf. The inoculated plants are placed in a dark chamber at about 20° C. and 100% relative atmospheric humidity.
2 days after the inoculation, the size of the infected areas on the leaves is evaluated. 0% means an efficacy which corresponds to that of the control, whereas an efficacy of 100% means that no infection is observed.

In a further data set the test system is Puccinia recondita. As to the kind of experiment: Puccinia test (wheat)/protective. Format: in vivo. Conditions: 240 h, wheat plants, protective, application rate 500 g/ha, evaluation 10 days after inoculation, read-out: Efficacy in %. The procedure: (§3) To produce a suitable preparation of active compound, 1 part by weight of active compound is mixed with the stated amounts of solvent and emulsifier, and the concentrate is diluted with water to the desired concentration.
To test for protective activity, young plants are inoculated with a spore suspension of Puccinia recondita in a 0.1% strength aqueous agar solution. After the spray coating has dried on, the plants are sprayed with the preparation of active compound at the stated application rate. The plants remain in an incubation cabin at 20° C. and 100% relative atmospheric humidity for 24 hours.
The plants are then placed in a greenhouse at a temperature of about 20° C. and a relative atmospheric humidity of 80% to promote the development of rust pustules.
as §2

Data set [3] relates to eggs of the diamond back moth (Plutella xylostella). As to the kind of experiment: Plutella test. Format: in vivo. The conditions noted are these: active compound concentration 1000 ppm, on synthetic feed. On the procedure:
To produce a suitable preparation of active compound, 1 part by weight of active compound is mixed with the stated amount of solvent, and the concentrate is diluted with methanol to the desired concentrations.
A stated amount of the preparation of active compound of the desired concentration is pipetted onto a standardized amount of synthetic feed. After the methanol has evaporated, about 200-300 eggs of the diamond back moth (Plutella xylostella) are placed onto the feed.
After the desired period of time, the kill of the eggs in % is determined. 100% means that all animals have been killed; 0% means that none of the animals have been killed.

For a further data set, the system named is Alternaria solani. As to the kind of experiment: Alternaria test (tomato)/protective. Format: in vivo. Conditions: tomato plants, protective; application rate 750 g/ha; evaluation 7 days after inoculation. The procedure:
as §3
To test for protective activity, young tomato plants are sprayed with the preparation of active compound at the stated application rate. 1 day after the treatment, the plants are inoculated with a spore suspension of Alternaria solani and then remain at 100% relative atmospheric humidity and 20° C. for 24 hours. The plants then remain at 96% relative atmospheric humidity and a temperature of 20° C.
Evaluation is carried out 7 days after the inoculation. 0% means an efficacy which corresponds to that of the control, whereas an efficacy of 100% means that no infection is observed.

For the compound `C=CCO/N=C\c1ccc(-c2ccccc2NC(=O)c2cn(C)nc2C(F)F)cc1` [Compound 10], in data set [1], the chromatographic logP (commonly lipophilicity estimated from chromatographic retention) was determined as 3.32. The Efficacy in % in data set [2] was found to be 100%. Besides, the pest or weed control at 500 g/ha was found to be 95% with Botrytis cinerea and 100% in the data set on Puccinia recondita.

For the compound `Cn1cc(C(=O)Nc2ccccc2-c2ccc(/C=N\OCC3CC3)cc2)c(C(F)(F)F)n1` [Compound 4], the chromatographic logP in data set [1] was determined as 3.77. The Efficacy in % in data set [2] was 91%.

With `Cn1cc(C(=O)Nc2ccccc2-c2ccc(/C=N\OCC3CC3)cc2)c(C(F)F)n1` [Compound 7], the chromatographic logP in data set [1] was determined as 3.53. In data set [2], this compound had an Efficacy in % of 100%. Moreover, the values for the pest or weed control at 500 g/ha in the data set on Botrytis cinerea and in the data set with Puccinia recondita were 96% and 100%, respectively.

`CC1=C(C(=O)Nc2ccccc2-c2ccc(/C(C)=N\OCC3CC3)cc2)SCCO1` [Compound 22]: the chromatographic logP in data set [1] is 4.69. In addition, the “Kill rate in % after 7 d” value in data set [3] amounted to 95%.

In the case of `C=CCO/N=C(/C)c1ccc(-c2ccccc2NC(=O)c2sc(C)nc2C(F)F)cc1` [Compound 15], in data set [1], the chromatographic logP worked out at 3.92. Moreover, in the data set with Puccinia recondita, the pest or weed control at 500 g/ha turned out to be 100%. The “Kill rate in % after 7 d” value in data set [3] turned out to be 95%.

For the compound `C=CCO/N=C\c1ccc(-c2ccccc2NC(=O)c2cn(C)nc2C(F)(F)F)cc1` [Compound 11], in data set [1], the chromatographic logP came to 3.53. Also, the Efficacy in % with Alternaria solani is 100%.

In data set [1], `Cc1nc(C(F)F)c(C(=O)Nc2ccccc2-c2ccc(/C=N\OCC3CC3)cc2)s1` [Compound 8] registered a chromatographic logP of 3.87. In data set [2], this compound registered an Efficacy in % of 100%. Moreover, the pest or weed control at 500 g/ha in the data set on Botrytis cinerea is 85%.

In data set [1], `C=CCO/N=C\c1ccc(-c2ccccc2NC(=O)c2c(C)nn(C)c2F)cc1` [Compound 6] yielded a chromatographic logP of 3.47. Moreover, the Efficacy in % was determined as 97% in data set [2] and 100% with Alternaria solani. The values for the pest or weed control at 500 g/ha with Botrytis cinerea and in the data set with Puccinia recondita were 98% and 100%, respectively.

In the case of `C=CCO/N=C/c1ccc(-c2ccccc2NC(=O)c2sc(C)nc2C(F)F)cc1` [Compound 9, N-[4′-(allyloxyimino-methyl)-biphenyl-2-yl]-4-difluoromethyl-2-methylthiazole-5-carboxamide], in data set [1], the chromatographic logP came out at 3.65. The same compound displayed an Efficacy in % in data set [2] of 100%. Besides, in the data set on Botrytis cinerea, the pest or weed control at 500 g/ha stood at 95%.

Compound `C=CCO/N=C\c1ccc(-c2ccccc2NC(=O)c2cccnc2Cl)cc1` [Compound 12] returned a chromatographic logP in data set [1] of 3.3. The Efficacy in % in the data set with Alternaria solani stood at 100%.

On to `C=CCO/N=C\c1ccc(-c2ccccc2NC(=O)c2sc(C)nc2C(F)(F)F)cc1` [Compound 5], for which, in data set [1], the chromatographic logP was found to be 3.91. In addition, the Efficacy in % (in data set [2]; in the data set with Alternaria solani) was 100% in each case. Moreover, the pest or weed control at 500 g/ha in the data set with Botrytis cinerea was determined as 83%.

With `Cc1nc(C(F)(F)F)c(C(=O)Nc2ccccc2-c2ccc(/C=N\OCC3CC3)cc2)s1` [Compound 2], the chromatographic logP in data set [1] was 4.16. In addition, in the data set with Botrytis cinerea, the pest or weed control at 500 g/ha worked out at 98%. In the data set with Alternaria solani, this compound showed an Efficacy in % of 90%.

Source of the values: patent US7728019B2, “Biphenylcarboxamides” (priority 2002, dated 2010).
